Results taken from US20220133738A1, “GENOTYPE AND DOSE-DEPENDENT RESPONSE TO AN ASBTI IN PATIENTS WITH BILE SALT EXPORT PUMP DEFICIENCY” (MIRUM PHARMACEUTICALS, INC., priority 2019, published 2022).

Tested on: overweight and obese adults
Experiment: Dose-ranging phase 1 clinical study (NCT02475317): fecal bile acid excretion with maralixibat and volixibat
Format: in vivo, human
Details: for fBA excretion, mean change from baseline: baseline to day 6 and 7

In the case of `CCCC[C@]1(CC)CS(=O)(=O)c2ccc(N(C)C)cc2[C@@H](c2cccc(NC(=O)N[C@@H]3O[C@H](COS(=O)(=O)O)[C@@H](O)[C@H](OCc4ccccc4)[C@H]3O)c2)[C@H]1O` [volixibat], the “fBA excretion, mean change from baseline” value (10 mg dose (QD), 7 days) is reported as 744 µmol, the “fBA excretion, mean change from baseline” value (20 mg dose (QD), 7 days) is reported as 874 µmol and the “fBA excretion, dose dependence” value (across tested doses, 7 days) is reported as “increased in a dose-dependent manner”. For the same compound, the treatment-emergent adverse events (all doses, 7 days) was “mild, and none were serious”, the “Mean serum 7αC4” value (baseline to day 7, greatest change at maralixibat 50 mg BID) was “increased” and the “Mean sBA levels” value (day 7 versus baseline) was “not elevated”.
